In patent US20220152045A1 (priority 2012, published 2022):
Where two headings read alike, the source gives them in different places.

How the values were obtained:
[1] = tested on: non-human animal (for example, a monkey); test: Continuous intravenous administration to a non-human animal, vasostimulant; type: in vivo; conditions: continuous i.v. 1 mg/kg/h to 2 mg/kg/h for several hours (4 to 6 hours), in the neighborhood of an effective dose
From the text: It can be said that this is an astonishingly excellent effect provided by the dosing regimen of the invention.

[2] = tested on: surgery patients at the age of 20 or older and younger than 65; conditions: in vivo
[3] = tested on: surgery patients at the age of 20 or older and younger than 65; conditions: in vivo; remark: listed apart in the source
[4] = tested on: surgery patients at the age of 65 or older; conditions: in vivo
[5] = tested on: surgery patients at the age of 65 or older; conditions: in vivo; remark: listed apart in the source
patients = test: Clinical trials of the Examples taken together (85 cases of patients in total); conditions: dosing regimen of the invention, amount per kg equal to or more than in the preceding animal tests

## COC(=O)CC[C@@H]1N=C(c2ccccn2)c2cc(Br)ccc2-n2c(C)cnc21.O=S(=O)(O)c1ccccc1 [Compound B, Methyl 3-[(4S)-8-bromo-1-methyl-6-(2-pyridinyl)-4H-imidazo[1,2-a][1,4]benzodiazepin-4-yl]propanoate benzenesulfonate]
[1]
  Vasostimulant: vasostimulant is observed
[2]
  Other side effects to be concerned or abnormal laboratory data: not observed
[3]; human
  Number of test subjects who developed hypotension, adverse event: 3 patients
  Proportion of test subjects who developed hypotension as a side effect: 10%
[3]
  Average time until the patient opened eyes: 13.9 min
  Average time until the patient stated the date of birth: 21.5 min
  Average time until the patient were allowed to leave the surgery room: 25.5 min
  Average time until the trachea was extubated: 16.4 min
  Other side effects to be concerned or abnormal laboratory data: not observed
[3]; 1 mg/kg
  Recollection during anesthesia: no recollection
  Salvage treatment for sedation during surgery: without performing a salvage treatment
  Signs of awakening during the surgery: not observed
[3]; 12 mg/kg
  Completion rate of endotracheal intubation: 100%
  Time until loss of consciousness (range of actual values): (48-120) sec
[4]
  Completion rate of endotracheal intubation: 100%
  Other side effects to be concerned or abnormal laboratory data: not observed
[5]; human
  Number of test subjects who developed hypotension, adverse event: 3 Patients
  Proportion of test subjects who developed hypotension as a side effect: 20%
[5]
  Average time until the patient opened eyes: 10.9 min
  Average time until the patient stated the date of birth: 18.5 min
  Average time until the patient were allowed to leave the surgery room: 19.1 min
  Average time until the trachea was extubated: 13.6 min
  Other side effects to be concerned or abnormal laboratory data: not observed
[5]; 1 mg/kg
  Recollection during anesthesia: no recollection
  Salvage treatment for sedation during surgery: without performing a salvage treatment
  Signs of awakening during the surgery: not observed
[5]; 4 mg/kg
  Completion rate of endotracheal intubation: 100%
  Time until loss of consciousness (range of actual values): (70-135) sec
patients
  Vasostimulant: does not cause the vasostimulant
